Measured values taken from patent US10774086B2, “GSK-3 inhibitors” (BRISTOL-MYERS SQUIBB COMPANY, priority 2016, dated 2020).

What was measured:
GSK3β = GSK3β (Homo sapiens (Human), UniProt P49841); assay: GSK3β kinase assay (Caliper LabChip, fluoresceinated peptide substrate); type: biochemical; settings: 250 pM enzyme, 20 uM ATP, 1.5 uM peptide, 20 hours room temperature; read-out: GSK3β IC50 (first value of GSK3β/GSK3α)
Protocol: The kinase assay was performed in V-bottom 384-well plates. […] The reaction was incubated at room temperature for 20 hours and terminated by adding 45 μl of 35 mM EDTA to each sample. The reaction mixture was analyzed on the Caliper LabChip3000 (Caliper, Hopkinton, Mass.) by electrophoretic separation of the unphosphorylated substrate and phosphorylated product. […] Compounds were dissolved at 10 mM in dimethylsulfoxide (DMSO) and evaluated at eleven concentrations. IC50 values were derived by non-linear regression analysis.

pTau = pTau assay; type: cell-based
GSK3α = GSK3α (Homo sapiens (Human), UniProt P49840); assay: GSK3α kinase assay (Caliper LabChip, fluoresceinated peptide substrate); type: biochemical; settings: 250 pM enzyme, 20 uM ATP, 1.5 uM peptide, 20 hours room temperature; read-out: GSK3α IC50 (second value of GSK3β/GSK3α)
Excerpt: IC50 values were derived by non-linear regression analysis.

Chain of GSK3α (P49840 whole entry, species assumed): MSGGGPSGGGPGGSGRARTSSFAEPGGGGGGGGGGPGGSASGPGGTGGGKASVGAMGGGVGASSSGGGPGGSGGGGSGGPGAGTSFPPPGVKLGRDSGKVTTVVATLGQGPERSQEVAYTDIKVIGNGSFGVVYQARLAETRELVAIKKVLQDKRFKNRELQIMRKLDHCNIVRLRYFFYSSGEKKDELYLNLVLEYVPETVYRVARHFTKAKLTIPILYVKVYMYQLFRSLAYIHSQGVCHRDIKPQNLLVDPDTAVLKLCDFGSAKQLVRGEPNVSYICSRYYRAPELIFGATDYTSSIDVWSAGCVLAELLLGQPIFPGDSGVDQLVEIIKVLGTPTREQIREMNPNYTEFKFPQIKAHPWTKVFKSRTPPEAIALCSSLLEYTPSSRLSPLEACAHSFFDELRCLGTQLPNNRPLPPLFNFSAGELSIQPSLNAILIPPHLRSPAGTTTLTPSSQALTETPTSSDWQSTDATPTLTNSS
Chain of GSK3β (P49841 whole entry, species assumed): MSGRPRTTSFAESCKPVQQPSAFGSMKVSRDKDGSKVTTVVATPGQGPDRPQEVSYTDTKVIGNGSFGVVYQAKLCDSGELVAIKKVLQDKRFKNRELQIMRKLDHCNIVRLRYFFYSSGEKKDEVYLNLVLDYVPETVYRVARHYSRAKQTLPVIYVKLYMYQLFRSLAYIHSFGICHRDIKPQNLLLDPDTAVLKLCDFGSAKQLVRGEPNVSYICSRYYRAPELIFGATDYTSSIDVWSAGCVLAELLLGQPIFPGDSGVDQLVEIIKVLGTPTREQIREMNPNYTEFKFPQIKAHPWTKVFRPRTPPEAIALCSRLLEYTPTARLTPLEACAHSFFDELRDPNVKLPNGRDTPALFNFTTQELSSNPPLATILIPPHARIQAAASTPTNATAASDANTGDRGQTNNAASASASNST

IC50 (GSK3β) [nM] | IC50 (pTau) [nM] | IC50 (GSK3α) [nM] | Structure (SMILES)
9 | 65 | 1.4 | O=C(Nc1cnccc1N1CCOCC1)c1ccnn2c(NCC3CC3)cnc12 [Example 44, 3-((Cyclopropylmethyl)amino)-N-(4-morpholinopyridin-3-yl)imidazo[1,2-b]pyridazine-8-carboxamide]
0.8 | 110 | 0.6 | COc1ccccc1-c1cn2nccc(C(=O)Nc3cnccc3N3CCC(F)(F)CC3)c2n1 [Example 23, N-(4-(4,4-Difluoropiperidin-1-yl)pyridin-3-yl)-2-(2-methoxyphenyl)imidazo[1,2-b]pyridazine-8-carboxamide]
19.8 | 760 | 11.4 | O=C(Nc1cnccc1N1CCCCC1)c1ccnn2ccnc12 [Example 27, N-(4-(Piperidin-1-yl)pyridin-3-yl)imidazo[1,2-b]pyridazine-8-carboxamide]
63 | 3900 | 30 | Cc1ccncc1NC(=O)c1ccnn2c(NCC3CC3)cnc12 [Example 40, 3-((Cyclopropylmethyl)amino)-N-(4-methylpyridin-3-yl)imidazo[1,2-b]pyridazine-8-carboxamide]
140 | 6800 | 110 | CC(C)Oc1ccncc1NC(=O)c1ccnn2c(NC(=O)C3CCC3)cnc12 [Example 47, 3-(Cyclobutanecarboxamido)-N-(4-isopropoxypyridin-3-yl)imidazo[1,2-b]pyridazine-8-carboxamide]
0.75 | 58 | 0.4 | CC1CN(c2ccncc2NC(=O)c2ccnn3cc(-c4ccccc4)nc23)CCO1 (racemic) [Example 14, N-(4-(2-Methylmorpholino)pyridin-3-yl)-2-phenylimidazo[1,2-b]pyridazine-8-carboxamide]
4.6 | 140 | 2 | O=C(Nc1cnccc1N1CCC(F)(F)CC1)c1ccnn2ccnc12 [Example 28, N-(4-(4,4-Difluoropiperidin-1-yl)pyridin-3-yl)imidazo[1,2-b]pyridazine-8-carboxamide]
0.4 | 36 | 0.2 | O=C(Nc1cnccc1N1CCOCC1)c1ccnn2cc(-c3ccccc3)nc12 [Example 13, N-(4-Morpholinopyridin-3-yl)-2-phenylimidazo[1,2-b]pyridazine-8-carboxamide]
1.6 | 160 | 1 | CC1CN(c2ccncc2NC(=O)c2ccnn3cc(C4=CCCCC4)nc23)CCO1 (stereo not drawn) [Example 35, 2-(Cyclohex-1-en-1-yl)-N-(4-(2-methylmorpholino)pyridin-3-yl)imidazo[1,2-b]pyridazine-8-carboxamide]
0.2 | 9.2 | 0.09 | CC1CN(c2ccncc2NC(=O)c2ccnn3cc(-c4ccccc4)nc23)CCO1 (single isomer, unassigned) [Example 15, N-(4-(2-Methylmorpholino)pyridin-3-yl)-2-phenylimidazo[1,2-b]pyridazine-8-carboxamide]
3.4 | 180 | 1 | C[C@@H]1COCCN1c1ccncc1NC(=O)c1ccnn2cc(-c3ccccc3)nc12 [Example 17, (R)—N-(4-(3-Methylmorpholino)pyridin-3-yl)-2-phenylimidazo[1,2-b]pyridazine-8-carboxamide]
0.4 | 120 | 0.2 | O=C(Nc1cnccc1N1CCC(F)(F)CC1)c1ccnn2cc(C3CC3)nc12 [Example 31, 2-Cyclopropyl-N-(4-(4,4-difluoropiperidin-1-yl)pyridin-3-yl)imidazo[1,2-b]pyridazine-8-carboxamide]
0.7 | 83 | 0.4 | CC(C)Oc1ccncc1NC(=O)c1ccnn2cc(-c3ccccc3)nc12 [Example 3, N-(4-Isopropoxypyridin-3-yl)-2-phenylimidazo[1,2-b]pyridazine-8-carboxamide]
0.6 | 79 | 0.4 | COc1ccccc1-c1cn2nccc(C(=O)Nc3cnccc3N3CCOC(C)C3)c2n1 (stereo not drawn) [Example 24, 2-(2-Methoxyphenyl)-N-(4-(2-methylmorpholino)pyridin-3-yl)imidazo[1,2-b]pyridazine-8-carboxamide]
0.8 | 86 | 0.3 | CC1CN(c2ccncc2NC(=O)c2ccnn3cc(-c4ccccc4)nc23)CCO1 (single isomer, unassigned) [Example 16, N-(4-(2-Methylmorpholino)pyridin-3-yl)-2-phenylimidazo[1,2-b]pyridazine-8-carboxamide]
6.1 | 820 | 1.2 | O=C(Nc1cnccc1-c1ccc(F)cc1)c1ccnn2cc(C3=CCCCC3)nc12 [Example 33, 2-(Cyclohex-1-en-1-yl)-N-(4-(4-fluorophenyl)pyridin-3-yl)imidazo[1,2-b]pyridazine-8-carboxamide]
0.3 | 5.7 | 0.3 | C[C@H]1COCCN1c1ccncc1NC(=O)c1ccnn2cc(-c3ccccc3)nc12 [Example 18, (S)—N-(4-(3-Methylmorpholino)pyridin-3-yl)-2-phenylimidazo[1,2-b]pyridazine-8-carboxamide]
6 | 5100 | 51 | CC(C)Oc1ccncc1NC(=O)c1ccnn2c(NC(=O)C3CC3)cnc12 [Example 46, 3-(Cyclopropanecarboxamido)-N-(4-isopropoxypyridin-3-yl)imidazo[1,2-b]pyridazine-8-carboxamide]
3.6 | 330 | 1 | O=C(Nc1cncnc1OCC(F)(F)F)c1ccnn2cc(-c3ccccc3)nc12 [Example 38, 2-Phenyl-N-(4-(2,2,2-trifluoroethoxy)pyrimidin-5-yl)imidazo[1,2-b]pyridazine-8-carboxamide]
5.2 | 140 | 1.6 | CC1CN(c2ccncc2NC(=O)c2ccnn3c(NCC4CC4)cnc23)CCO1 (stereo not drawn) [Example 45, 3-((Cyclopropylmethyl)amino)-N-(4-(2-methylmorpholino)pyridin-3-yl)imidazo[1,2-b]pyridazine-8-carboxamide]
6.6 | 290 | 3.4 | CC(C)Oc1ccncc1NC(=O)c1ccnn2c(NCC3CC3)cnc12 [Example 41, 3-((Cyclopropylmethyl)amino)-N-(4-isopropoxypyridin-3-yl)imidazo[1,2-b]pyridazine-8-carboxamide]
3.8 | 250 | 3.2 | CC1CN(c2ccncc2NC(=O)c2ccnn3ccnc23)CCO1 (stereo not drawn) [Example 29, N-(4-(2-Methylmorpholino)pyridin-3-yl)imidazo[1,2-b]pyridazine-8-carboxamide]
